# Several values for one entry are separate records, joined by “and”; a condition that tells them apart may be missing. Identical values can stand only once. Entries after “also recorded” stand apart in the source; their conditions may differ.
# Experiment: Surface tension measurement, Kruss Processor Tensiometer-K12, Wilhelmy-method (plate method)
# Format: physicochemical
# Conditions: for Surface tension, 25° C. Extrapolated Values at 2 mg/ml / Surface tension, 45° C. Extrapolated Values at 2 mg/ml: extrapolated to 2 mg/ml
# Description: A “surface active” material is one having surface activity (measured, e.g., by surface tensiometry), as characterized by its ability to reduce the surface tension of the liquid in which it is dissolved. […] A peptide that is more surface active than another peptide is one which decreases the surface tension of water to a greater extent, when present in the liquid at the same concentration and measured under the same set of experimental conditions. The surface tension of several representative dipeptides, tripeptides, and proteins was measured at 25° C. and 45° C. to provide an indication of their relative surface activities. Surface tension measurements were carried out using a Kruss Processor Tensiometer-K12 with the Wilhelmy-method (Plate method). Solutions were prepared by dissolving either 0.05%, 0.2%, or 0.6% peptide/protein (by weight) along with an appropriate amount of raffinose by weight to provide final solutions having a 1.0% by weight solids content. Surface tension measurements at 25° C. and 45° C. were then obtained for the test solutions at three different time points (49 seconds, 100 seconds and 194 seconds).
# [1] = Table 2: 0.20% (wt/vol) plus 0.80% raffinose, 25° C., 49 s
# [2] = Table 2: 0.20% (wt/vol) plus 0.80% raffinose, 25° C., 100 s
# [3] = Table 2: 0.20% (wt/vol) plus 0.80% raffinose, 25° C., 194 s
# [4] = 0.2% (wt/vol) plus raffinose to 1% total solids, 25° C., 49 s
# [5] = 0.2% (wt/vol) plus raffinose to 1% total solids, 25° C., 100 s
# [6] = 0.2% (wt/vol) plus raffinose to 1% total solids, 25° C., 194 s
compound,measurement,setting,value
di-isoleucine [reference compound],"Surface activity (ability to lower the surface tension of water), in words",,not particularly effective at lowering the surface tension of water
same,Surface tension (ST),[1],67.7 mN/m and 67.6 mN/m and 68 mN/m
same,Surface tension (ST),[2],71.6 mN/m and 67.2 mN/m and 67.8 mN/m
same,Surface tension (ST),[3],71.6 mN/m and 67 mN/m and 67.6 mN/m
dileucine [di-leucine],"Surface activity (ability to lower the surface tension of water), in words",,highly surface active; also recorded: more effective than any of the other dimers examined in reducing the surface tension of water
same,"Surface tension, Actual MEAN","1.51 mg/ml, 25° C.",61.5 mN/m
same,"Surface tension, Actual MEAN","1.51 mg/ml, 45° C.",53.2 mN/m
same,"Surface tension, Actual MEAN","4.53 mg/ml, 25° C.",54.9 mN/m
same,"Surface tension, Actual MEAN","4.53 mg/ml, 45° C.",48.2 mN/m
same,"Surface tension, Actual MEAN","13.60 mg/ml, 25° C.",46.6 mN/m
same,"Surface tension, Actual MEAN","13.60 mg/ml, 45° C.",42.7 mN/m
same,Surface tension (ST),[4],58.4 mN/m and 58.7 mN/m and 60.1 mN/m
same,Surface tension (ST),[5],58.1 mN/m and 58.3 mN/m and 59.8 mN/m
same,Surface tension (ST),[6],57.9 mN/m and 58.2 mN/m and 59.7 mN/m
same,"Surface tension, 25° C. Extrapolated Values at 2 mg/ml",25° C.,60.4 mN/m
same,"Surface tension, 45° C. Extrapolated Values at 2 mg/ml",45° C.,52.4 mN/m
leu-tyr-leu,"Surface activity (ability to lower the surface tension of water), in words",,the most surface active of the trimers
same,"Surface tension, Actual MEAN","0.32 mg/ml, 25° C.",58.4 mN/m
same,"Surface tension, Actual MEAN","0.32 mg/ml, 45° C.",55.4 mN/m
same,"Surface tension, Actual MEAN","0.97 mg/ml, 25° C.",51.6 mN/m
same,"Surface tension, Actual MEAN","0.97 mg/ml, 45° C.",49.1 mN/m
same,"Surface tension, Actual MEAN","2.90 mg/ml, 25° C.",44.7 mN/m
same,"Surface tension, Actual MEAN","2.90 mg/ml, 45° C.",40.8 mN/m
same,"Surface tension, 25° C. Extrapolated Values at 2 mg/ml",25° C.,47.9 mN/m
same,"Surface tension, 45° C. Extrapolated Values at 2 mg/ml",45° C.,44.7 mN/m
Ala-Val-Leu [reference compound],"Surface tension, Actual MEAN","0.97 mg/ml, 25° C.",67.5 mN/m
same,"Surface tension, Actual MEAN","0.97 mg/ml, 45° C.",60.3 mN/m
same,"Surface tension, Actual MEAN","2.90 mg/ml, 25° C.",62.8 mN/m
same,"Surface tension, Actual MEAN","2.90 mg/ml, 45° C.",57.7 mN/m
same,"Surface tension, Actual MEAN","8.70 mg/ml, 25° C.",55.7 mN/m
same,"Surface tension, Actual MEAN","8.70 mg/ml, 45° C.",53.8 mN/m
same,"Surface tension, 25° C. Extrapolated Values at 2 mg/ml",25° C.,65 mN/m
same,"Surface tension, 45° C. Extrapolated Values at 2 mg/ml",45° C.,58.9 mN/m
tri-valine [reference compound],"Surface activity (ability to lower the surface tension of water), in words",,not particularly effective at lowering the surface tension of water
same,Surface tension (ST),[1],68.8 mN/m and 68.7 mN/m
same,Surface tension (ST),[2],68.8 mN/m and 68.7 mN/m
same,Surface tension (ST),[3],68.8 mN/m and 68.7 mN/m
OC[C@H]1O[C@H](OC[C@H]2O[C@H](O[C@]3(CO)O[C@H](CO)[C@@H](O)[C@@H]3O)[C@H](O)[C@@H](O)[C@@H]2O)[C@H](O)[C@@H](O)[C@H]1O [raffinose],"Surface activity (ability to lower the surface tension of water), in words",,non-surface active
same,Surface tension (ST),"1% raffinose, 25° C., 49 s",72 mN/m
same,Surface tension (ST),"1% raffinose, 25° C., 100 s",72 mN/m
same,Surface tension (ST),"1% raffinose, 25° C., 194 s",72 mN/m
same,Surface tension (ST),"1% raffinose, pH4, 25° C., 49 s",71.4 mN/m and 71.1 mN/m
same,Surface tension (ST),"1% raffinose, pH4, 25° C., 100 s",71.4 mN/m and 71.1 mN/m
same,Surface tension (ST),"1% raffinose, pH4, 25° C., 194 s",71.4 mN/m and 71.1 mN/m
same,Surface tension (ST),"1% raffinose, pH4, 45° C., 49 s",67.9 mN/m and 68.2 mN/m and 68 mN/m
same,Surface tension (ST),"1% raffinose, pH4, 45° C., 100 s",68 mN/m and 68.2 mN/m
same,Surface tension (ST),"1% raffinose, pH4, 45° C., 194 s",68 mN/m and 68.2 mN/m and 68.1 mN/m
same,Surface tension (ST),"1% raffinose, pH7, 25° C., 49 s",71.1 mN/m
same,Surface tension (ST),"1% raffinose, pH7, 25° C., 100 s",71.1 mN/m
same,Surface tension (ST),"1% raffinose, pH7, 25° C., 194 s",71.1 mN/m
same,Surface tension (ST),"1% raffinose, pH7, 45° C., 49 s",68.4 mN/m and 68.3 mN/m
same,Surface tension (ST),"1% raffinose, pH7, 45° C., 100 s",68.4 mN/m and 68.3 mN/m
same,Surface tension (ST),"1% raffinose, pH7, 45° C., 194 s",68.4 mN/m and 68.3 mN/m
"salmon calcitonin [sal. Calcitonin, reference compound]","Surface activity (ability to lower the surface tension of water), in words",,highly surface active
same,Surface tension (ST),[4],48.7 mN/m
same,Surface tension (ST),"0.2% (wt/vol) plus raffinose to 1% total solids, 25° C., 49 s, listed as sal. calcitonin",48.4 mN/m
same,Surface tension (ST),[5],48.6 mN/m
same,Surface tension (ST),"0.2% (wt/vol) plus raffinose to 1% total solids, 25° C., 100 s, listed as sal. calcitonin",48.4 mN/m
same,Surface tension (ST),[6],48.5 mN/m
same,Surface tension (ST),"0.2% (wt/vol) plus raffinose to 1% total solids, 25° C., 194 s, listed as sal. calcitonin",48.4 mN/m
Val-Ile [reference compound],"Surface tension, Actual MEAN","1.11 mg/ml, 25° C.",71.6 mN/m
same,"Surface tension, Actual MEAN","1.11 mg/ml, 45° C.",66.3 mN/m
same,"Surface tension, Actual MEAN","3.33 mg/ml, 25° C.",70.1 mN/m
same,"Surface tension, Actual MEAN","3.33 mg/ml, 45° C.",65.3 mN/m
same,"Surface tension, Actual MEAN","10.00 mg/ml, 25° C.",66.1 mN/m
same,"Surface tension, Actual MEAN","10.00 mg/ml, 45° C.",61.9 mN/m
same,"Surface tension, 25° C. Extrapolated Values at 2 mg/ml",25° C.,70.3 mN/m
same,"Surface tension, 45° C. Extrapolated Values at 2 mg/ml",45° C.,65.8 mN/m
leu-phe-leu,"Surface tension, Actual MEAN","0.68 mg/ml, 25° C.",54.7 mN/m
same,"Surface tension, Actual MEAN","0.68 mg/ml, 45° C.",53.6 mN/m
same,"Surface tension, Actual MEAN","2.03 mg/ml, 25° C.",48.3 mN/m
same,"Surface tension, Actual MEAN","2.03 mg/ml, 45° C.",46.2 mN/m
same,"Surface tension, Actual MEAN","6.10 mg/ml, 25° C.",41.5 mN/m
same,"Surface tension, Actual MEAN","6.10 mg/ml, 45° C.",39.3 mN/m
same,"Surface tension, 25° C. Extrapolated Values at 2 mg/ml",25° C.,48.3 mN/m
same,"Surface tension, 45° C. Extrapolated Values at 2 mg/ml",45° C.,46.2 mN/m
Leu-Tyr [reference compound],"Surface tension, Actual MEAN","0.71 mg/ml, 25° C.",71.5 mN/m
same,"Surface tension, Actual MEAN","0.71 mg/ml, 45° C.",68.0 mN/m
same,"Surface tension, Actual MEAN","2.13 mg/ml, 25° C.",68.0 mN/m
same,"Surface tension, Actual MEAN","2.13 mg/ml, 45° C.",65.6 mN/m
same,"Surface tension, Actual MEAN","6.40 mg/ml, 25° C.",62.2 mN/m
same,"Surface tension, Actual MEAN","6.40 mg/ml, 45° C.",59.5 mN/m
same,"Surface tension, 25° C. Extrapolated Values at 2 mg/ml",25° C.,68.3 mN/m
same,"Surface tension, 45° C. Extrapolated Values at 2 mg/ml",45° C.,67.3 mN/m
di-alanine [reference compound],Surface tension (ST),[4],72 mN/m and 72.1 mN/m
same,Surface tension (ST),[5],72 mN/m and 71.9 mN/m and 72.1 mN/m
same,Surface tension (ST),[6],71.9 mN/m and 72.1 mN/m

# — US7482024B2, “Compositions comprising an active agent” (Nektar Therapeutics, priority 1999, dated 2009)
